Results: article PMC10296061, “Inhibition of the Mitochondrial Carnitine/Acylcarnitine Carrier by Itaconate through Irreversible Binding to Cysteine 136: Possible Pathophysiological Implications” (Biomolecules, 2023)
Where a chain is given by its changes, count along the chain named.

Columns and labels:
Type in all cases: biochemical
Settings in all cases: read-out: IC50 for itaconate inhibition
CAC K135A mutant = molecular target: T1, CAC K135A mutant (Rattus norvegicus, UniProt P97521, K135A); experiment: Transport assay in proteoliposomes, CAC mutant K135A
T1 construct: made in house; host or cells: E. coli C0214
T1 sequence (P97521 1-301 K135A): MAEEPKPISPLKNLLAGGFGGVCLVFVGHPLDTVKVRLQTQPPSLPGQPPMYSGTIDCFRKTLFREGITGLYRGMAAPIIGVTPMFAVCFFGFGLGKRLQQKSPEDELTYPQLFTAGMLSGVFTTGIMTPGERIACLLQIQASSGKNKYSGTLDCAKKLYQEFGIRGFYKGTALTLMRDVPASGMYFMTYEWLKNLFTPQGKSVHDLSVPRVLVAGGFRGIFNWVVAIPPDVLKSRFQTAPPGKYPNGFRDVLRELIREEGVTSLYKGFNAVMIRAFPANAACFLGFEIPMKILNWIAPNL
Protocol: (§1) As previously described, the pMW7-WTratCAC recombinant plasmid was used for over-expressing the rat CAC [22]. The overlap extension method was used to introduce the mutations; in the main time, NdeI and HindIII restriction sites were also added using appropriate primers. The PCR products were purified by the QIAEX II Gel Extraction Kit (QIAGEN) and digested with NdeI and HindIII and then ligated into the pMW7. All mutations were verified by DNA sequencing. The resulting plasmid constructs were transformed into E. coli C0214. Overexpression, inclusion body fraction preparation, and purification of the CAC proteins were performed as previously described. […]
(§2) To test the transport activity of the CAC, 550 μL of proteoliposomes was passed through a Sephadex G-75 column to remove the external substrate. […] Transport rates were measured in 10 min, i.e., within the initial linear range of the time course, at 25 °C. After terminating the transport reaction, the external substrate was removed by chromatography on the Sephadex G-75 column, and the intraliposomal radioactivity was measured. […]
Figure 9 Dose–response analysis of inhibition by itaconate of WT protein (○) and the K135A (●) mutant was performed by measuring the transport activity with or without itaconate treatment. […] The data are expressed as a percent of the own controls and are means ± SD from three independent experiments.

[1] = molecular target: T2, CAC C23V/C58V/C89S/C155V/C283S mutant (Rattus norvegicus, UniProt P97521, C155V/C23V/C283S/C58V/C89S); experiment: Transport assay in proteoliposomes, CAC mutant containing the sole C136
T2 construct: made in house; host or cells: E. coli C0214
T2 sequence (P97521 1-301 C23V/C58V/C89S/C155V/C283S): T1 sequence (P97521 1-301 K135A) with C23V, C58V, C89S, A135K, C155V, C283S
Protocol: as §1, §2
(§3) Figure 3 Identification of residue responsible for itaconate inhibition. […] Transport activity of the WT (○), C136A (●), C155A (Δ), C23V/C58V/C89S/C155V/C283S (▲), and C23V/C58V/C89S/C136V/C155V/C283S (□) was measured by adding 0.1 mM [^3H]carnitine after treatment by itaconate at the indicated concentrations. […]

[2] = molecular target: T3, native ornithine/citrulline carrier (ORC, SLC25A15) (Rattus norvegicus, UniProt A0A0G2K309); experiment: [3H]ornithine transport in proteoliposomes reconstituted with native ORC
T3 construct: from tissue; host or cells: rat liver mitochondria
T3 sequence (A0A0G2K309 1-301): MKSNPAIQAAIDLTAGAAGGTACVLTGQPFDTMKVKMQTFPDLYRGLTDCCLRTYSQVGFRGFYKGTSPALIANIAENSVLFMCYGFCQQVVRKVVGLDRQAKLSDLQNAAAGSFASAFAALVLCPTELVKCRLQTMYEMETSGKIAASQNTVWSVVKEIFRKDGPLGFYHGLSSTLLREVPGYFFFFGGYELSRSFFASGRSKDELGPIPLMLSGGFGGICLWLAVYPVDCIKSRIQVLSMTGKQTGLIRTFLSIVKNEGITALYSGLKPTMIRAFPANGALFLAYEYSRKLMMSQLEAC
From the text: As previously described, recombinant CAC (WT and mutants) and ORC1 proteins were used for proteoliposome formation. For experiments with native CAC, ORC1, or ANT proteins, rat liver mitochondria, or HeLa cell mitochondria, the latter for the CAC alone, were first purified using the standard procedure of cell disruption and differential centrifugation. Then proteins were extracted using 3% Triton X-100 and reconstituted as described for the recombinant proteins. The concentration of intraliposomal carnitine and ornithine was 15 mM and 30 mM, respectively, in all samples.
as §2, §3

Q: What does the source list for `C=C(CC(=O)O)C(=O)O` [itaconate]?
A: IC50 (CAC K135A mutant): 16 ± 2.6 mM; IC50 [1]: 4 ± 0.14 mM; IC50 [2]: 52 ± 5.5 mM
